In patent US20250213614A1, “Modified RELA Protein for Inducing Interferon Expression and Engineered Immune Cells with Improved Interferon Expression” (Institut Curie, priority 2022, published 2025):

Experiments:
Assay type in all cases: cell-based, human
CD4+ T cells = assay: IFN-I/III quantification (LEGENDplex) in CD4+ T cells, baseline or after STING stimulation; conditions: for IFNλ1 response to cGAMP under epigenetic inhibitor: CD4+ T cells, TSA 100 nM or 5AZA 2 μM, FIG. 3D; for IFN-I/III: over-expression of cGAS or NLS-cGAS in CD4+ T cells, data not shown
Description: (§1) Plasmapheresis blood pockets were obtained from healthy adult volunteers after informed consent from the EFS (Establishment of French blood collection). Peripheral blood mononuclear cells (PBMCs) were isolated using Ficoll-Paque Plus (GE-17144003) and left overnight at 4° C. in RPMI (Thermo fischer #61870-010) with 10% heat-decomplemented fetal bovine serum (FBS, Eurobio #CVFSVFO0-01). CD14+ cells were enriched by positive selection (Miltenyi #130-050-201), the CD14 negative fraction was subsequently used to isolate total CD4+ T cells by negative selection (Stem Cell #17952). CD14+ cells were cultured in RPMI containing 10% FBS, 5% Penicillin-Streptomycin (PS, Thermo Fisher #10378-016), 50 μg/ml Gentamicin (Thermo Fisher #15750-045) and 10 mM HEPES (Thermo Fisher #15630-056). CD14+ cells were differentiated ex vivo into MDDC by supplementing the culture media with 50 ng/ml IL-4 (Miltenyi #130-093-922) and 10 ng/ml GM-CSF (Miltenyi #130-093-867). MDDC were used for experiments 3 or 4 days following the start of the culture. CD14+ cells were differentiated ex vivo into macrophages by adding 50 ng/ml MCSF (Miltenyi #130-096-492) to the culture media containing RPMI with 1% PS, 5% FBS and 5% human serum (Sigma #H4522). MDM were used 7 days following culture. Freshly isolated CD4+ T cells were cultured in X-VIVO 15 (Lonza #BE02-060F) and activated using anti-CD3 and anti-CD28 Dynabeads (fisher scientific #10548353) at the ratio of 1:5 (bead:cell). 100 U/ml human IL-2 (Immunotools #11340027) was added to cultures 2 days following TCR stimulation and media with IL-2 was replenished every 48 hours. To assess proliferation, freshly isolated CD4+ T cells were stained with cell proliferation dye (thermo fischer #65-0840-85) prior to TCR stimulation.
(§2) CD14+ cells were plated at 1 million cells/ml and transduced with equal volumes of freshly harvested SIV-VLPs and pTRIP-SFFV vectors in the presence of 8 μg/ml protamine (Sigma #P4020). CD4+ T cells were transduced with lentivectors 24 hours post-TCR stimulation in 100 μl of cells (0.2 million cells) and 100 μl of freshly harvested lentivirus in the presence of 8 μg/ml protamine. T cells were spinoculated at 1200 g for 2 hours at 25° C. 0.5 million THP-1 cells in 500 μl media (RPMI 10% FBS 1% PS) were transduced with 500 μl freshly harvested lentivirus in the presence of 8 μg/ml protamine. 1 μg/ml Puromycin (Invivogen #ant-pr-1) was added 2 days post-transduction when cells were transduced with pLKO.1-puro plasmid.
For stimulation of STING by extracellular ligands, 2.5 μg of ADUS100 (invivogen #tlrl-nacda2r-01) or 2′3′-cGAMP (cGAMP, invivogen #tlrl-nacga23-02) was added to 100,000 cells in 100 μl media either on freshly isolated primary cells or 3-4 days post differentiation for MDDC and 3 days post-TCR stimulation for CD4+ T cells. Cells and supernatant were harvested 18-24 hours post stimulation. For delivery of STING ligands after permeabilization, T cells were used 3 or 4 days post TCR stimulation and MDDC were used 3-4 days following differentiation. 150,000 cells were plated in round bottom 96-well plate. Media was removed by centrifugation and 20 μl 2× permeabilization buffer (100 mM HEPES, 200 mM KCl, 6 mM MgCl2, 0.2 mM DTT, 170 mM Sucrose, 2 mM ATP, 2 mM GTP, 0.4% bovine serum albumin (BSA), 20 μg/ml digitonin) and 20 μl cGAMP (12 μg/ml) was added to cells. 18 to 20 hours following stimulation supernatants and cells were harvested. Cells were stained with a fixable viability dye (Invitrogen #65-0865-14) and acquired on a FACSVerse (BD). […]
Where indicated, cells were treated with 5-Azacytidine (5AZA, Sigma #A2385) 48 hours prior to cGAMP stimulation. Fresh 5AZA was added daily to cells, and media was replenished with 5AZA following cGAMP stimulation. 100 nM Trichostatin A (TSA) (sigma #T1952) was added to cells following cGAMP stimulation and left overnight. […]

MDDC = assay: IFN-I/III quantification (LEGENDplex) in MDDC after STING stimulation
Description: as §1, §2
For stimulation of STING by extracellular ligands, 2.5 μg of ADUS100 (invivogen #tlrl-nacda2r-01) or 2′3′-cGAMP (cGAMP, invivogen #tlrl-nacga23-02) was added to 100,000 cells in 100 μl media either on freshly isolated primary cells or 3-4 days post differentiation for MDDC and 3 days post-TCR stimulation for CD4+ T cells. Cells and supernatant were harvested 18-24 hours post stimulation. For delivery of STING ligands after permeabilization, T cells were used 3 or 4 days post TCR stimulation and MDDC were used 3-4 days following differentiation. 150,000 cells were plated in round bottom 96-well plate. Media was removed by centrifugation and 20 μl 2× permeabilization buffer (100 mM HEPES, 200 mM KCl, 6 mM MgCl2, 0.2 mM DTT, 170 mM Sucrose, 2 mM ATP, 2 mM GTP, 0.4% bovine serum albumin (BSA), 20 μg/ml digitonin) and 20 μl cGAMP (12 μg/ml) was added to cells. 18 to 20 hours following stimulation supernatants and cells were harvested. Cells were stained with a fixable viability dye (Invitrogen #65-0865-14) and acquired on a FACSVerse (BD).
For experiments with conditioned media, CD4+ T cell- and MDDC-conditioned media refer to […] filtered conditioned media from cultures of activated CD4+ T cell and MDDC, respectively. CD4+ T cells were pretreated with 100 μl of MDDC-conditioned media or of fresh MDDC culture media, 24 hours prior to cGAMP stimulation. […]

[1] = system: STING, TBK1, IRF3, RELA, IRF7; assay: Western blot of key signaling proteins involved in STING signaling; conditions: for cGAMP-mediated STING signaling: CD4+ T cells treated with TSA or 5AZA, FIG. 3E
Description: 0.5 million cells were lysed for 30 minutes on ice in 50 μl RIPA buffer (50 mM Tris HCl, 150 mM NaCl, 0.1% SDS, 0.5% DOC, 1% NP-40) with Protease inhibitor (Roche #1187358001). To evaluate, phospho-proteins 50 mM NaF and 1 mM sodium orthovanadate were added to the lysis buffer. Protein lysates were cleared by centrifugation at 12,000 g for 10 to 12 minutes at 4° C. 10 μl of 6× Laemmli buffer (fisher scientific #J61337) was added to 50 μl protein lysates and samples were boiled at 95° C. for 15 minutes. Protein samples were resolved on 4%-20% Biorad precast SDS-PAGE gels (#5671125) and transferred onto PVDF membranes (BioRad #1704157). Membranes were blocked in 5% non-fat dry milk in PBS 0.1% tween or in TBS 5% BSA 0.1% Tween to detect phosphorylated proteins. Primary antibodies were used at 1:1000:phospho-STING (clone-D7C3S), STING (clone-D2P2F), serine 172 phospho-TBK1 (clone-D52C2), TBK1 (clone-D11B4), serine 396 phospho IRF3 (clone-D6O1M), IRF3 (clone-D83B9), RELA (clone-C22B4), IRF7 (clone-12G9A36), cGAS (clone-D1 D3G), Actin (clone-C4), Sendai viral proteins (Biozol #MBL-PD029). Secondary anti-rabbit or anti-mouse antibody were used at 1:10,000 (santa cruz #sc-2357, #sc-516102). ECL signal (Biorad #1705061 and #1705062) was recorded on a ChemiDoc Touch Biorad Imager. Data was analyzed and quantified with Image Lab software (Biorad). In figures, dotted lines indicate reordering of lanes from a single original membrane for visualization purpose.

[2] = TCR-activated CD4+ T cells, ADU-S100 2.5 μg, FIG. 1D

Molecule: Nc1ncnc2c1ncn2[C@@H]1O[C@@H]2COP(=O)([S-])O[C@@H]3[C@H](O)[C@@H](COP([O-])(=S)O[C@H]2[C@H]1O)O[C@H]3n1cnc2c(N)ncnc21.[Na+].[Na+] (stereo partly drawn) [ADU-S100, reference compound]
- IFN-I induction (CD4+ T cells; [2]): no detectable IFN-I
- IFN-III induction (CD4+ T cells; [2]): induced IFN-III
- IFN response to STING ligands (CD4+ T cells; resting blood CD4+ T cells, soluble ligand 1 μg or 2.5 μg, FIG. 1B): undetectable
- IFNλ1 produced by donor-matched MDDC, more than TCR-activated CD4+ T cells (MDDC; ADU-S100 2.5 μg, FIG. 1D): 10 fold
- IFNβ production (MDDC; donor-matched MDDC, ADU-S100 2.5 μg, FIG. 1D): high levels

Molecule: shRNA 1: pLKO.1-puro-IRF7sh1, shRNA against IRF7, CCCGAGCTGCACGTTCCTATA [reference compound]
- induction of IFNα2 by cGAMP stimulation (CD4+ T cells; CD4+ T cells expressing only RELA K5R, IRF7 knock-down, FIG. 4C): abolished
- IRF7 expression (knock-down) ([1]; CD4+ T cells treated with IFNα2a 1000 U/ml, FIG. 4B): more potent

Molecule: IFNγ: recombinant type II interferon, 10 ng/ml
- IFN-I/III response to cGAMP (MDDC; MDDC treated with recombinant IFNγ 10 ng/ml 24 hours before cGAMP, FIG. 1H): sufficient to enhance

Molecule: Nc1ncn([C@@H]2O[C@H](CO)[C@@H](O)[C@H]2O)c(=O)n1 [5AZA, 5-Azacytidine, reference compound]
- IFNλ1 response to cGAMP under epigenetic inhibitor (CD4+ T cells): enhanced the IFNλ1 response to cGAMP
- cGAMP-mediated STING signaling [1]: did not occur through detectable increase

Molecule: CC(/C=C/C(=O)NO)=C\[C@@H](C)C(=O)c1ccc(N(C)C)cc1 [TSA, Trichostatin A, reference compound]
- IFN expression at baseline with RELA K5R and after cGAMP stimulation (CD4+ T cells; CD4+ T cells treated with TSA): inhibits IFN expression
- IFNλ1 response to cGAMP under epigenetic inhibitor (CD4+ T cells): reduced the already low IFNλ1 production
- cGAMP-mediated STING signaling [1]: intact

B1: cGAS: pTRIP-SFFV-EGFP-FLAG-cGAS over-expression (protein, UniProt Q8N884 1-522, looked up)
Cyclic GMP-AMP synthase: MQPWHGKAMQRASEAGATAPKASARNARGAPMDPTESPAAPEAALPKAGKFGPARKSGSRQKKSAPDTQERPPVRATGARAKKAPQRAQDTQPSDATSAPGAEGLEPPAAREPALSRAGSCRQRGARCSTKPRPPPGPWDVPSPGLPVSAPILVRRDAAPGASKLRAVLEKLKLSRDDISTAAGMVKGVVDHLLLRLKCDSAFRGVGLLNTGSYYEHVKISAPNEFDVMFKLEVPRIQLEEYSNTRAYYFVKFKRNPKENPLSQFLEGEILSASKMLSKFRKIIKEEINDIKDTDVIMKRKRGGSPAVTLLISEKISVDITLALESKSSWPASTQEGLRIQNWLSAKVRKQLRLKPFYLVPKHAKEGNGFQEETWRLSFSHIEKEILNNHGKSKTCCENKEEKCCRKDCLKLMKYLLEQLKERFKDKKHLDKFSSYHVKTAFFHVCTQNPQDSQWDRKDLGLCFDNCVTYFLQCLRTEKLENYFIPEFNLFSSNLIDKRSKEFLTKQIEYERNNEFPVFDEF
modifications: EGFP, FLAG tag
notes: pTRIP-SFFV-EGFP-FLAG-cGAS over-expression
- IFN-I/III (CD4+ T cells): remained undetectable

B2: NLS-cGAS: pTRIP-SFFV-EGFP-NLS-FLAG-cGAS, nuclear localization signal cGAS over-expression (protein, UniProt Q8N884 1-522, looked up)
Cyclic GMP-AMP synthase: B1 Cyclic GMP-AMP synthase
modifications: EGFP, NLS, FLAG tag
notes: pTRIP-SFFV-EGFP-NLS-FLAG-cGAS, nuclear localization signal cGAS over-expression
- IFN-I/III (CD4+ T cells): remained undetectable

B3: RELA K310R: RELA with lysine 310 substituted for arginine, expressed from lentivector (protein)
chain: MDELFPLIFPAEPAQASGPYVEIIEQPKQRGMRFRYKCEGRSAGSIPGERSTDTTKTHPTIKINGYTGPGTVRISLVTKDPPHRPHPHELVGKDCRDGFYEAELCPDRCIHSFQNLGIQCVRRRDLEQAISQRIQTNNNPFQVPIEEQRGDYDLNAVRLCFQVTVRDPSGRPLRLPPVLSHPIFDNRAPNTAELKICRVNRNSGSCLGGDEIFLLCDKVQKEDIEVYFTGPGWEARGSFSQADVHRQVAIVFRTPPYADPSLQAPVRVSMQLRRPSDRELSEPMEFQYLPDTDDRHRIEEKRKRTYETFRSIMRRSPFSGPTDPRPPPRRIAVPSRSSASVPKPAPQPYPFTSSLSTINYDEFPTMVFPSGQISQASALAPAPPQVLPQAPAPAPAPAMVSALAQAPAPVPVLAPGPPQAVAPPAPKPTQAGEGTLSEALLQLQFDDEDLGALLGNSTDPAVFTDLASVDNSEFQQLLNQGIPVAPHTTEPMLMEYPEAITRLVTGAQRPPDPAPAPLGAPGLPNGLLSGDEDFSSIADMDFSALLSQISS
- IFNλ1 after cGAMP stimulation (CD4+ T cells; lentivector overexpression in CD4+ T cells, FIG. 2B, 2D, 2F): augmented in the presence of cGAMP
- IFNα2 in response to cGAMP (CD4+ T cells; lentivector overexpression in CD4+ T cells, FIG. 2D, 2F): detected
- baseline IFNλ1 expression (CD4+ T cells; lentivector overexpression in CD4+ T cells, no cGAMP, FIG. 2D, 2F): increased baseline IFNλ1 similar to RELA K5R
